# Key:
# MET-altered cell lines = conditions: MANOVA
# [1] = tested on: NCI-H1975 (EGFR p.L858R + p.T790M); test: Cell viability assay; type: cell-based
# FLT3 = target: T1, FLT3 (Homo sapiens, UniProt P36888); test: Biochemical kinase assay (MSA), IC50; conditions: biochemical assays
# T1 construct: purchased Carna Biosciences (only by web pointer)
# ROS = target: T2, ROS (Homo sapiens, UniProt P08922); test: Biochemical kinase assay (MSA), IC50; conditions: biochemical assays
# T2 construct: purchased Carna Biosciences (only by web pointer)
# RET = target: T3, RET (Homo sapiens, UniProt P07949); test: Biochemical kinase assay (MSA), IC50; conditions: biochemical assays
# T3 construct: purchased Carna Biosciences (only by web pointer)
# T3 sequence (P07949 29-1114): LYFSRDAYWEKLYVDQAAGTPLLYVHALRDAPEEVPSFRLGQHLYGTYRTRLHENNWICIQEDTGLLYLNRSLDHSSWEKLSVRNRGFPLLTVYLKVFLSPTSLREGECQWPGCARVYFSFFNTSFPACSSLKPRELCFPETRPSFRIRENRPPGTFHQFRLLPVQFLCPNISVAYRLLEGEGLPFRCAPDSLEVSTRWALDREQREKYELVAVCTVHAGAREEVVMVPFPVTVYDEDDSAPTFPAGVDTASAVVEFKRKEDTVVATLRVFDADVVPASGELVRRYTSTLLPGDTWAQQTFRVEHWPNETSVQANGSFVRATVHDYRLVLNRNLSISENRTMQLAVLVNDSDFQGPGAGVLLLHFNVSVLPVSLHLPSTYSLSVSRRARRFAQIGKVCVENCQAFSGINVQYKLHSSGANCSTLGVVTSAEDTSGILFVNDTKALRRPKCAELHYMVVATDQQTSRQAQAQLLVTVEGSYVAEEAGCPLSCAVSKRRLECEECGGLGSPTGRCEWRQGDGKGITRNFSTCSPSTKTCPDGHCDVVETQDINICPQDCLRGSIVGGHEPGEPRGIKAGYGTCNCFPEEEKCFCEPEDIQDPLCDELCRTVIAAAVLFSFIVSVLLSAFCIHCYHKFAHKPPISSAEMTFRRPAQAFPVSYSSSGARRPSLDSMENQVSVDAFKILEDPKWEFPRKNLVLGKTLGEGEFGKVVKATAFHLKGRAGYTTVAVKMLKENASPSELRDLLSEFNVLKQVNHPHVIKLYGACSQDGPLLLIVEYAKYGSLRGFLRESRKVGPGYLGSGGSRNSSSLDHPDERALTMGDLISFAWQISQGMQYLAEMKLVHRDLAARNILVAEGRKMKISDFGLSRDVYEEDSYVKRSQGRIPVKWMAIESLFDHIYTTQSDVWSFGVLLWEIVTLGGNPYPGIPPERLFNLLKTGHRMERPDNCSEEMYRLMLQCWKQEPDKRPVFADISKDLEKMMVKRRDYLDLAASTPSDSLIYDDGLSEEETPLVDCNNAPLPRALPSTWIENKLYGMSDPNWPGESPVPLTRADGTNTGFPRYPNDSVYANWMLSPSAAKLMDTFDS
# HER2 = target: T4, HER2 (Homo sapiens, UniProt P04626); test: Biochemical kinase assay (MSA), IC50
# T4 construct: purchased Carna Biosciences (only by web pointer)
# T4 sequence (P04626 23-1255): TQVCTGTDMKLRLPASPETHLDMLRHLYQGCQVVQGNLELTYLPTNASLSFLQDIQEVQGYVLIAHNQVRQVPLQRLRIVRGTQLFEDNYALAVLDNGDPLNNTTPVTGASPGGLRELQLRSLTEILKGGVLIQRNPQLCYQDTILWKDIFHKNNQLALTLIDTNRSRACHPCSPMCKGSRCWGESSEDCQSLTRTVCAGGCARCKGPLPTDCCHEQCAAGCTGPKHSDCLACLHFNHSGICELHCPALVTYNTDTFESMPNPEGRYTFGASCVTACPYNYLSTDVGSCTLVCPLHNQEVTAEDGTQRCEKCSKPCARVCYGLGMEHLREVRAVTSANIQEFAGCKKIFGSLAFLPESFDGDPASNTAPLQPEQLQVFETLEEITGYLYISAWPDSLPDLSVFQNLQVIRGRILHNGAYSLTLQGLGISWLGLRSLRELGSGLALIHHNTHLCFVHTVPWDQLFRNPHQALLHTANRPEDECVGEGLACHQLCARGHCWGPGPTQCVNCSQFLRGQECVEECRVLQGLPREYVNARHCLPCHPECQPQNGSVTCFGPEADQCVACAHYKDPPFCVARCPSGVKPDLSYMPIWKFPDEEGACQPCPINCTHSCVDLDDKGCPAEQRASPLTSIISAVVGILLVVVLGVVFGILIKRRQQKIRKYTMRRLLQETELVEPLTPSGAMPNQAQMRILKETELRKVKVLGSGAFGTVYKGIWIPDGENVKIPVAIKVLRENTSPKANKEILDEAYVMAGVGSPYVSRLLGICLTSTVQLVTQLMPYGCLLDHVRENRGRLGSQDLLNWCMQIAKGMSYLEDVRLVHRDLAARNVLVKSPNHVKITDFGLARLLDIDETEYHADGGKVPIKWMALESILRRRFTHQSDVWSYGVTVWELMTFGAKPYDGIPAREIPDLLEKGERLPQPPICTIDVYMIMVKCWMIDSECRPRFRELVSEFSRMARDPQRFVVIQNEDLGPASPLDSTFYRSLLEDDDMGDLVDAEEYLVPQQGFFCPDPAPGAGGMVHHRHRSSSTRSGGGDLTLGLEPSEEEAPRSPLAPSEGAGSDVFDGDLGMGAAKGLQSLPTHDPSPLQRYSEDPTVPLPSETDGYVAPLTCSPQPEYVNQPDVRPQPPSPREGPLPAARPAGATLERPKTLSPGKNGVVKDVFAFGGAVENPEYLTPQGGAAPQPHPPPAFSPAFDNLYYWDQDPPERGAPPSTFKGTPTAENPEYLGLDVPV
# HER4 = target: T5, HER4 (Homo sapiens, UniProt Q15303); test: Biochemical kinase assay (MSA), IC50
# T5 construct: purchased Carna Biosciences (only by web pointer)
# T5 sequence (Q15303 26-1308): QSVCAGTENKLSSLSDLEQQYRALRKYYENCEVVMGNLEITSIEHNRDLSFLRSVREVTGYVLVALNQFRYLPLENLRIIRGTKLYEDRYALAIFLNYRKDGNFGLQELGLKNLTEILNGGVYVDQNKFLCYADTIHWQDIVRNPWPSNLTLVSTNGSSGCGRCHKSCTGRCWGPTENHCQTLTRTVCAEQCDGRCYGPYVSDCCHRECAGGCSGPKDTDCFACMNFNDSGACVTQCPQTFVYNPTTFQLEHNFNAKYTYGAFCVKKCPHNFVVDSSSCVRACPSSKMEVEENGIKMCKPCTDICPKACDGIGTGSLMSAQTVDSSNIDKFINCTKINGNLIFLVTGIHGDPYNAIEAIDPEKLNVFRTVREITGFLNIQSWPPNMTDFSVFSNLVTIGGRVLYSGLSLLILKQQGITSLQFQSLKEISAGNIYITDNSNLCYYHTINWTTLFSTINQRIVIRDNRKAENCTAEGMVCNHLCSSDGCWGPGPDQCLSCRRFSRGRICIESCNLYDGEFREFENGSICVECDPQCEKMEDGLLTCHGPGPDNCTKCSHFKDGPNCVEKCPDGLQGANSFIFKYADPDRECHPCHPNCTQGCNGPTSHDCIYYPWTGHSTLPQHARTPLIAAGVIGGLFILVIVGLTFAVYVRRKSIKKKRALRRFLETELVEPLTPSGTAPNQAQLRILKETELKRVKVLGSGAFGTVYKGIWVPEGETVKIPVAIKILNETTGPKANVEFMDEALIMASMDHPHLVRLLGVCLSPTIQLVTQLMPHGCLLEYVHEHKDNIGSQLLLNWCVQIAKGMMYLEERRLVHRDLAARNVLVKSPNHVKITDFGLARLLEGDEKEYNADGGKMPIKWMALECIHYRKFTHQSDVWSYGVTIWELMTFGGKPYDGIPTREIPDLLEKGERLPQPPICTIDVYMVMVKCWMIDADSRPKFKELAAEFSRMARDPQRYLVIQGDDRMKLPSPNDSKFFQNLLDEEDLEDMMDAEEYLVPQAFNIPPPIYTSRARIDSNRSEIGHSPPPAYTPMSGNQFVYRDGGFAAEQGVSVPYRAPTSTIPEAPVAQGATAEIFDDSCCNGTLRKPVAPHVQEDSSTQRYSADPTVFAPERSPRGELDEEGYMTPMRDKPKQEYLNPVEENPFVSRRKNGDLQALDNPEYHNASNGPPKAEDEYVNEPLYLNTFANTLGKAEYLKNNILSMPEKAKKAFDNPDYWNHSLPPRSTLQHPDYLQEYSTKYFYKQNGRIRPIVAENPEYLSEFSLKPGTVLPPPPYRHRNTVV
# T1 sequence (P36888 27-993): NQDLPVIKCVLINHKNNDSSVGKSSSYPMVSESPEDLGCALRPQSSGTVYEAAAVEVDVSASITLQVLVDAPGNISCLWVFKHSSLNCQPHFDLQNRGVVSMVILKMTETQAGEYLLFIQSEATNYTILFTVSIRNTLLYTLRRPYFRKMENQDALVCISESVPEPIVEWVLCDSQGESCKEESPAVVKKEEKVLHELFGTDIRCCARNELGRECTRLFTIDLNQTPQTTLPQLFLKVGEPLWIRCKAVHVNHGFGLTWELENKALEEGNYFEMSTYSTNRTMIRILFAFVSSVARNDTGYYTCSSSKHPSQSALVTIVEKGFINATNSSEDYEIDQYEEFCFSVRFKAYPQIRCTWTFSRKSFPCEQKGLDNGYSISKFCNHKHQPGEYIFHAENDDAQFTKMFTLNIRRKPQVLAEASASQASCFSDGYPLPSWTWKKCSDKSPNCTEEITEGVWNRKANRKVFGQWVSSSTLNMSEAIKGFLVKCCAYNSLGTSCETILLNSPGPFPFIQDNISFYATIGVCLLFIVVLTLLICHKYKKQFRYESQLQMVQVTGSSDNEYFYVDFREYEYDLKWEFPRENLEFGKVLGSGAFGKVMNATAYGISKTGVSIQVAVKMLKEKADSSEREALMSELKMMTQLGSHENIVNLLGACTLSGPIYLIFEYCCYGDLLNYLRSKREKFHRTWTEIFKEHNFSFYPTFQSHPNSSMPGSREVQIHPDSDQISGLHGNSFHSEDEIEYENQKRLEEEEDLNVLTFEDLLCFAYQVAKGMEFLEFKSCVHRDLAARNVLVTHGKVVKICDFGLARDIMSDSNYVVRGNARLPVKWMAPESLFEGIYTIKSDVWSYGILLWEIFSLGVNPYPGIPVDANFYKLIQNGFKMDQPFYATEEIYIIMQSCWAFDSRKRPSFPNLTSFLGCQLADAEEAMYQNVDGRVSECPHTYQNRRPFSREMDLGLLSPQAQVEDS
smiles,measurement,setting,value
CNC(=O)c1ccc(-c2cnc3ncc(Cc4ccc5ncccc5c4)n3n2)cc1F [capmatinib],higher potency in MET-altered compared to MET wild-type cell lines,MET-altered cell lines,"over 10,000 fold"
COc1cc2ncnc(Nc3ccc(F)c(Cl)c3)c2cc1NC(=O)/C=C/CN1CCCCC1 [dacomitinib],lower potency in NCI-H1975 compared to osimertinib,[1],28 fold
CCc1nc(C(N)=O)c(Nc2ccc(N3CCC(N4CCN(C)CC4)CC3)c(OC)c2)nc1NC1CCOCC1 [gilteritinib],potency on FLT3 compared to midostaurin,FLT3,around eight-fold more potent
O=C(Nc1cnn2ccc(N3CCC[C@@H]3c3cc(F)ccc3F)nc12)N1CC[C@H](O)C1 [larotrectinib],higher IC50 on ROS1 compared to TRKA-C,ROS,around 100 fold
COc1ccc(CN2C3CC2CN(c2ccc(-c4cc(OCC(C)(C)O)cn5ncc(C#N)c45)cn2)C3)cn1 [selpercatinib],potency on RET compared to pralsetinib,RET,almost two-fold more potent
Cc1cc(Nc2ncnc3ccc(NC4=NC(C)(C)CO4)cc23)ccc1Oc1ccn2ncnc2c1 [tucatinib],IC50,HER2,3.3 nM
same,IC50,HER4,95 nM
